Measured values published in US11034672B1, “Tyrosine kinase inhibitor compositions, methods of making and methods of use” (Black Diamond Therapeutics, Inc., priority 2018, dated 2021).
pIC50: −log10 of the molar value.

Experiments:
Assay type in all cases: cell-based
[1] = target: T1, EGFR WT (Homo sapiens, UniProt P00533); assay: Activity for inhibiting EGFR (Table A), EGFR WT; details: read-out: EGFR WT, potency code (IC50)
[2] = target: T2, EGFR V3 (Homo sapiens, UniProt P00533, DELINS30-297G); assay: Activity for inhibiting EGFR (Table A), EGFR V3 (EGFR-Viii); details: read-out: EGFR V3, potency code (IC50)
T2 construct: expressed in transfected cells; host or cells: BaF3 (murine pro-B), retroviral pMXs-IRES-Blasticidin
T2 sequence (P00533 with tags, fused parts or gaps DELINS30-297G): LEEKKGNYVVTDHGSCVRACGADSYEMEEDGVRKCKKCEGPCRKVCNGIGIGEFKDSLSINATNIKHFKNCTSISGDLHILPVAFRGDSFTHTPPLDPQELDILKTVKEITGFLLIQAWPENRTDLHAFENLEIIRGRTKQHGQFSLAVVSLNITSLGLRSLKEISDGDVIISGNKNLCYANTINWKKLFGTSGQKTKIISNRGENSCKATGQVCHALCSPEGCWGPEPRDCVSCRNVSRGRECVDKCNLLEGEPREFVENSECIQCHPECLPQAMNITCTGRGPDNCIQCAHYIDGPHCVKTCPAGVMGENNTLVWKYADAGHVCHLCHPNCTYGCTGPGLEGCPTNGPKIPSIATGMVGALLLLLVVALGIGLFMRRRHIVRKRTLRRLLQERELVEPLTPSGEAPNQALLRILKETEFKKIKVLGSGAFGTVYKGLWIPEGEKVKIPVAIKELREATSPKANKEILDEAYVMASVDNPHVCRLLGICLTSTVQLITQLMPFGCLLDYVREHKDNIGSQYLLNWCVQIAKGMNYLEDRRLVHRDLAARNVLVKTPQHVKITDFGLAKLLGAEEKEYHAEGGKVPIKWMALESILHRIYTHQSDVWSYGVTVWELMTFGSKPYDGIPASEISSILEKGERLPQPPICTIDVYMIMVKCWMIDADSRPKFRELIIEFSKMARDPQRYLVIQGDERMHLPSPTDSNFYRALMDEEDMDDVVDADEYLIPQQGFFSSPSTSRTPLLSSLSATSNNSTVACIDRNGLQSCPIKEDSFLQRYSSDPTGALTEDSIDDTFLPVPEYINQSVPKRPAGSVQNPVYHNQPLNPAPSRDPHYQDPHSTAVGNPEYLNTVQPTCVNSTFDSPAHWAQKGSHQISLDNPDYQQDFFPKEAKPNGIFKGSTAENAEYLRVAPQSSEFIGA

[3] = target: T3, HER2 S310F (Homo sapiens, UniProt P04626, S310F); assay: Activity for inhibiting HER2 (Table B), HER2 S310F; details: read-out: HER2 S310F, potency code (IC50)
T3 construct: expressed in transfected cells; host or cells: BaF3 (murine pro-B)
T3 sequence (P04626 23-1255 S310F): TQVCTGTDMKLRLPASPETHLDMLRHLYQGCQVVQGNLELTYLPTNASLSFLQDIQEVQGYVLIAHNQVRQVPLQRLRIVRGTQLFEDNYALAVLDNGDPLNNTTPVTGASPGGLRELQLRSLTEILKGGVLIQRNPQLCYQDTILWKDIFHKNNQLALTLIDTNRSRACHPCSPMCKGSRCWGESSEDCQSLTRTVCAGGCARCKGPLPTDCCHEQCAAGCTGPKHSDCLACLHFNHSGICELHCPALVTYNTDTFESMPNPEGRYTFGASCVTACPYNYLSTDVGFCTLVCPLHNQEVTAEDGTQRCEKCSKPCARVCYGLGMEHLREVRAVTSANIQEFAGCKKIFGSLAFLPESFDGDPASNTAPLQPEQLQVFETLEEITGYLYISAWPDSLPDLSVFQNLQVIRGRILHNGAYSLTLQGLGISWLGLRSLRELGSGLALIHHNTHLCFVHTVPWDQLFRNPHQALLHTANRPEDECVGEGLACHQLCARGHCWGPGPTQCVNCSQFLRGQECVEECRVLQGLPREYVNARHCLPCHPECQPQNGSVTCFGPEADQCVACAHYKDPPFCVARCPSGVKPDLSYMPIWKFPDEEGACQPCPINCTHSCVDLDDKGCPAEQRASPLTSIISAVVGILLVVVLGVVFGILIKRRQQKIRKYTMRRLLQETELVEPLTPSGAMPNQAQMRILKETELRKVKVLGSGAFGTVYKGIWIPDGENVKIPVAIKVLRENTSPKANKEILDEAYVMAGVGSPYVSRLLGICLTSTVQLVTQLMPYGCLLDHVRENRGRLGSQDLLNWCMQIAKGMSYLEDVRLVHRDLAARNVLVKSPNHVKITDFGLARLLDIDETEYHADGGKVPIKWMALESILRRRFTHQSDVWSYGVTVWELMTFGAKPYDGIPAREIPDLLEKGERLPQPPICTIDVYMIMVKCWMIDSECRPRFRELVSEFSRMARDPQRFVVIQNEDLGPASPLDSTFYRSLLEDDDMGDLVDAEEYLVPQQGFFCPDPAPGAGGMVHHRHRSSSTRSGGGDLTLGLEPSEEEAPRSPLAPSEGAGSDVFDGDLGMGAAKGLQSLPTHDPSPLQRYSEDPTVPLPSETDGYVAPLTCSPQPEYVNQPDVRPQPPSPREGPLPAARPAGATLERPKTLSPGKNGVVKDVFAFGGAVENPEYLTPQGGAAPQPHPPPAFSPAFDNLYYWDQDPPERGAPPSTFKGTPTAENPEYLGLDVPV
Protocol: (§1) EC50 values were determined with the same application.

[4] = target: T4, HER2 YVMA (Homo sapiens, UniProt P04626, INS775YVMA); assay: Activity for inhibiting HER2 (Table B), HER2 YVMA; details: read-out: HER2 YVMA, potency code (IC50)
T4 construct: expressed in transfected cells; host or cells: BaF3 (murine pro-B)
T4 sequence (P04626 with tags, fused parts or gaps INS775YVMA): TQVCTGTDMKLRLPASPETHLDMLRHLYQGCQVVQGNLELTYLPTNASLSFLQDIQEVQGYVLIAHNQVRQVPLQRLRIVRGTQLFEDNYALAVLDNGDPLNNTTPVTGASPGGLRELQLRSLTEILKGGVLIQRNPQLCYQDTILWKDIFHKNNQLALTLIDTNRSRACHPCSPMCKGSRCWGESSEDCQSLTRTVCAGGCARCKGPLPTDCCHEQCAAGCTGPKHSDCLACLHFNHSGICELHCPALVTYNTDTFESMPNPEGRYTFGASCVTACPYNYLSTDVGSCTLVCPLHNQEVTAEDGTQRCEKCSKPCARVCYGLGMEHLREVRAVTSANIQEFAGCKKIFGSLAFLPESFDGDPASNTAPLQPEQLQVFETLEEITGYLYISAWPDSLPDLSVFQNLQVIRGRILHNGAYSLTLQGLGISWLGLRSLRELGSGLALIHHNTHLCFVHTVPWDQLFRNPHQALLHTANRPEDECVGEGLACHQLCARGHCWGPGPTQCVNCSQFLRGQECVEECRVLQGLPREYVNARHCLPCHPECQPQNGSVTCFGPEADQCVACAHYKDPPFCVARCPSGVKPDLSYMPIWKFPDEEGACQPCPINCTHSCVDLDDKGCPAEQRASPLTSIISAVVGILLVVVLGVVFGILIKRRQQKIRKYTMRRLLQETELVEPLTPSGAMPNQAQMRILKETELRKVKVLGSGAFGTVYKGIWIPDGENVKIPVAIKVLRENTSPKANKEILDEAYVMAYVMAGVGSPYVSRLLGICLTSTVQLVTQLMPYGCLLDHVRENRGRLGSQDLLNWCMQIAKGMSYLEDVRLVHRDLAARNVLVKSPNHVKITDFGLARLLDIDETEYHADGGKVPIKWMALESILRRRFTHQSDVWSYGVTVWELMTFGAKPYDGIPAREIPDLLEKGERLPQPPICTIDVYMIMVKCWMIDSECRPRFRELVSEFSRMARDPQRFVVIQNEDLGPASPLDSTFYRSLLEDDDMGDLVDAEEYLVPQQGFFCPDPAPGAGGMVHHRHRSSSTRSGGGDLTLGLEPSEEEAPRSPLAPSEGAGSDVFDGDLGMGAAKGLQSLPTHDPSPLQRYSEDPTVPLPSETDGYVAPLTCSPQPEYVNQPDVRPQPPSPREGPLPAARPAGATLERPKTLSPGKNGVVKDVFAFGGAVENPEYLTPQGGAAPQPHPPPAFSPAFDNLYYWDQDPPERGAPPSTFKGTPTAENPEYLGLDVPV
Protocol: as §1

[5] = target: T1, EGFR WT; assay: BaF3 cell proliferation assay, EGFR WT (Table A); details: potency code, 3 days, CellTiterGlo, read-out: EGFR WT (Activity for Inhibiting EGFR)
Protocol: (§2) Retroviral Production: EGFR mutants were subcloned into pMXs-IRES-Blasticidin (RTV-016, Cell Biolabs, San Diego, Calif.). Retroviral expression vector retrovirus was produced by transient transfection of HEK 293T cells with the retroviral EGFR mutant expression vector pMXs-IRES-Blasticidin (RTV-016, Cell Biolabs), pCMV-Gag-Pol vector and pCMV-VSV-G-Envelope vector. Briefly, HEK 293T/17 cells were plated in 100 mm collagen coated plate (354450, Corning Life Sciences, Tewksbury, Mass.) (4×10^5 per plate) and incubated overnight. The next day, retroviral plasmids (3 μg of EGFR mutant, 1.0 μg of pCMV-Gag-Pol and 0.5 μg pCMV-VSV-G) were mixed in 500 μl of Optimem (31985, Life Technologies). The mixture was incubated at room temperature for 5 min and then added to Optimem containing transfection reagent Lipofectamine (11668, Invitrogen) and incubated for 20 minutes. Mixture was then added dropwise to HEK 293T cells. The next day the medium was replaced with fresh culture medium and retrovirus was harvested @ 24 and 48 hrs.
(§3) Generation of EGFR mutant stable cell lines: BaF3 cells (1.5E5 cells) were infected with 1 ml of viral supernatant supplemented with 8 μg/ml polybrene by centrifuging for 30 min at 1000 rpm. Cells were placed in a 37° C. incubator overnight. Cells were then spun for 5 minutes to pellet the cells. Supernatant was removed and cells re-infected a fresh 1 ml of viral supernatant supplemented with 8 μg/ml polybrene by centrifuging for 30 min at 1000 rpm. Cells were placed in 37° C. incubator overnight. […] After 48 hours cells were selected for retroviral infection in 10 μg/ml Blasticidin for one week. Blasticidin resistant populations were washed twice in phosphate buffered saline before plating in media lacking IL-3 to select for IL-3 independent growth.
as §1

[6] = target: T2, EGFR V3; assay: BaF3 cell proliferation assay, EGFR V3 (Table A); details: potency code, 3 days, CellTiterGlo, read-out: EGFR V3 (Activity for Inhibiting EGFR)
Protocol: as §2, §3, §1

[7] = target: T3, HER2 S310F; assay: BaF3 cell proliferation assay, HER2 S310F (Table B); details: potency code, 3 days, CellTiterGlo, read-out: HER2 S310F (Activity for Inhibiting HER2)
[8] = target: T4, HER2 YVMA; assay: BaF3 cell proliferation assay, HER2 YVMA (Table B); details: potency code, 3 days, CellTiterGlo, read-out: HER2 YVMA (Activity for Inhibiting HER2)

T1 sequence (P00533 25-1210 N540K): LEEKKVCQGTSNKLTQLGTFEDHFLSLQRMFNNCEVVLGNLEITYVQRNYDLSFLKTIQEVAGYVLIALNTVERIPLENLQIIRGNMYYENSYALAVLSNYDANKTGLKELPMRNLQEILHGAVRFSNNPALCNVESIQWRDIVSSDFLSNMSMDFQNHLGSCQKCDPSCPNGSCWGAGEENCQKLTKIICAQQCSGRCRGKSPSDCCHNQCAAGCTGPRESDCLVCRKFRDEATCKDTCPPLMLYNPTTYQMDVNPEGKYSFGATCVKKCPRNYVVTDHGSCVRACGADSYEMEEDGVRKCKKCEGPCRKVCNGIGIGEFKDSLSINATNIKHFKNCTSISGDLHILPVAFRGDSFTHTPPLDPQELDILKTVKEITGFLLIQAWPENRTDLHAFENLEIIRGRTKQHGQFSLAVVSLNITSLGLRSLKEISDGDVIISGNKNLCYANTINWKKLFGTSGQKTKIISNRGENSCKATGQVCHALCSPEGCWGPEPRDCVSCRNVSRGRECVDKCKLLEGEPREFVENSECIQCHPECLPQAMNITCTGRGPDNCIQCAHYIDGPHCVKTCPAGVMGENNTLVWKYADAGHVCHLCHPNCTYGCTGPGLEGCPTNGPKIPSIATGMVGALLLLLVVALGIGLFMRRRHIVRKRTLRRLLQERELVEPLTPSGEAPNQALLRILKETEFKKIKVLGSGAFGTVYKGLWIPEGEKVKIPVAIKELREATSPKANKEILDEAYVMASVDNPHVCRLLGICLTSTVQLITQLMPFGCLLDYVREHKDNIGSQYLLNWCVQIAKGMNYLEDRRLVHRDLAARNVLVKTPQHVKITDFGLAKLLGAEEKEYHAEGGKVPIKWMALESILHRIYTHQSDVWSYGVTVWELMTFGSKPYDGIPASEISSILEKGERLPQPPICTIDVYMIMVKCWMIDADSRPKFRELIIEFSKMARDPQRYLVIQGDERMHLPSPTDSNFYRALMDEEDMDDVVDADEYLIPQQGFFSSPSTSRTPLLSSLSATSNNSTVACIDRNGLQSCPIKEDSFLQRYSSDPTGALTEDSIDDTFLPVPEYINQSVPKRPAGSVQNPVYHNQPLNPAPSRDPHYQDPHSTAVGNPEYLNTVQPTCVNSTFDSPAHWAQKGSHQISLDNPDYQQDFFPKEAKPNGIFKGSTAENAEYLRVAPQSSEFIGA

| SMILES | pIC50 [1] | pIC50 [2] | pIC50 [3] | pIC50 [4] | pIC50 [5] | pIC50 [6] | pIC50 [7] | pIC50 [8] |
| --- | --- | --- | --- | --- | --- | --- | --- | --- |
| C=CC(=O)Nc1cc2c(Nc3ccc(OCc4ccccn4)c(Cl)c3)ncnc2cc1OCCN1CCC2C1CCN2C (stereo not drawn) [compound 92, N-(4-((3-chloro-4-(pyridin-2-ylmethoxy)phenyl)amino)-7-(2-(4-methylhexahydropyrrolo[3,2-b]pyrrol-1(2H)-yl)ethoxy)quinazolin-6-yl)acrylamide] | 6.70 to 7.00 | 7.30 to 7.52 | 7.52 to 7.70 | 6.70 to 7.00 | 6.70 to 7.00 | 7.30 to 7.52 | 7.52 to 7.70 | 6.70 to 7.00 |
| C=CC(=O)Nc1cc2c(Nc3ccc(OCc4cccc(C)n4)c(Cl)c3)ncnc2cc1O[C@@H]1CCN(C)C1 [compound 140] | 6.30 to 6.52 | 6.70 to 7.00 | 6.70 to 7.00 | 6.30 to 6.52 | 6.30 to 6.52 | 6.70 to 7.00 | 6.70 to 7.00 | 6.30 to 6.52 |
| C=CC(=O)Nc1cc2c(Nc3ccc(OCc4ncccn4)c(Cl)c3)ncnc2cc1OCCCN1CCOCC1 [compound 166] | < 6.00 | 7.30 to 7.52 | 7.30 to 7.52 | 6.70 to 7.00 | < 6.00 | 7.30 to 7.52 | 7.30 to 7.52 | 6.70 to 7.00 |
| C=CC(=O)Nc1cc2c(Nc3ccc(OCc4cccc(C)n4)c(Cl)c3)ncnc2cc1OCCN1CC2CCC(C1)O2 [compound 132] | < 6.00 | 6.30 to 6.52 | 6.30 to 6.52 | 6.00 to 6.30 | < 6.00 | 6.30 to 6.52 | 6.30 to 6.52 | 6.00 to 6.30 |
| C=CC(=O)Nc1cc2c(Nc3ccc(OCc4ccccn4)c(Cl)c3)ncnc2cc1OC[C@H]1CCN(C)C1 [compound 101, N-(4-((3-chloro-4-(pyridin-2-ylmethoxy)phenyl)amino)-7-((1-methylpyrrolidin-3-yl)methoxy)quinazolin-6-yl)acrylamide] | 6.70 to 7.00 | 7.70 to 8.00 | 7.70 to 8.00 | 7.30 to 7.52 | 6.70 to 7.00 | 7.70 to 8.00 | 7.70 to 8.00 | 7.30 to 7.52 |
| C=CC(=O)Nc1cc2c(Nc3ccc(OCc4cnccn4)c(Cl)c3)ncnc2cc1OCCN1CCN(C)CC1 [compound 180] | 6.00 to 6.30 | 7.30 to 7.52 | 7.52 to 7.70 | 6.70 to 7.00 | 6.00 to 6.30 | 7.30 to 7.52 | 7.52 to 7.70 | 6.70 to 7.00 |
| C=CC(=O)Nc1cc2c(Nc3ccc(Oc4ccccc4)cc3)ncnc2cc1C#C[C@@H]1[C@H]2CN(C)C[C@@H]12 [compound 106, N-(7-(((1R,5S,6s)-3-methyl-3-azabicyclo[3.1.0]hexan-6-yl)ethynyl)-4-((4-phenoxyphenyl)amino)quinazolin-6-yl)acrylamide] | 6.70 to 7.00 | 7.30 to 7.52 | 7.30 to 7.52 | 6.70 to 7.00 | 6.70 to 7.00 | 7.30 to 7.52 | 7.30 to 7.52 | 6.70 to 7.00 |
| C=CC(=O)Nc1cc2c(Nc3ccc(OCc4ccccn4)c(Cl)c3)ncnc2cc1C#CC(C)(C)NC [compound 88, N-(4-((3-chloro-4-(pyridin-2-ylmethoxy)phenyl)amino)-7-(3-methyl-3-(methylamino)but-1-yn-1-yl)quinazolin-6-yl)acrylamide] | 6.00 to 6.30 | 7.30 to 7.52 | 7.70 to 8.00 | 6.70 to 7.00 | 6.00 to 6.30 | 7.30 to 7.52 | 7.70 to 8.00 | 6.70 to 7.00 |
| C=CC(=O)Nc1cc2c(Nc3ccc(OCc4ccccn4)c(Cl)c3)ncnc2cc1OCCN(C)C1CC1 [compound 53] | < 6.00 | 7.30 to 7.52 | 7.30 to 7.52 | 6.70 to 7.00 | < 6.00 | 7.30 to 7.52 | 7.30 to 7.52 | 6.70 to 7.00 |
